Test results reported in patent publication US10800741B2 (ANCUREALL PHARMACEUTICAL (SHANGHAI) CO., LTD., priority 2017, dated 2020).
Read-outs that look alike come from different tables or passages of the source.

Experiments:
Experiment in all cases: KINOMEscan in vitro binding to 468 labeled protein kinases
[1] = molecular target: T1, protein kinases (Homo sapiens, UniProt P00519, E255K); settings: ABL1(E255K)-phosphorylated, read-out: Test compound/solvent control (%)
T1 construct: purchased Discovery X company (USA), KINOMEscan screening platform
Experimental: (§1) Test Example 6 Determination of Binding Affinity of the Present Compounds on Protein Kinases In Vitro
(§2) KINOMEscan screening platform of Discovery X company (USA) was used to identify the binding targets of the present compounds to protein kinases. Compound 66 of the present invention was dissolved in DMSO (Sigma Aldrich) at concentrations of 1000 nM, 10 nM and 1 nM, and then was subjected to in vitro binding reaction with 468 labeled protein kinases. Two samples were taken in parallel for each assay sample.
(§3) The lower the percentage of the test compound to the solvent control, the stronger the binding affinity of the test compound to the protein kinase in vitro.

[2] = molecular target: T2, protein kinases (Homo sapiens, UniProt P00519, Q252H); settings: read-out: Test compound/solvent control (%); for remaining binding at 0.001 µM: 1 nM; for remaining binding at 0.01 µM: 10 nM; for remaining binding at 1 µM: 1000 nM
T2 construct: purchased Discovery X company (USA), KINOMEscan screening platform
Experimental: as §1, §2, §3

[3] = molecular target: T3, protein kinases (Homo sapiens, UniProt P00533); settings: EGFR
T3 construct: purchased Discovery X company (USA), KINOMEscan screening platform
T3 sequence (P00533 25-1210): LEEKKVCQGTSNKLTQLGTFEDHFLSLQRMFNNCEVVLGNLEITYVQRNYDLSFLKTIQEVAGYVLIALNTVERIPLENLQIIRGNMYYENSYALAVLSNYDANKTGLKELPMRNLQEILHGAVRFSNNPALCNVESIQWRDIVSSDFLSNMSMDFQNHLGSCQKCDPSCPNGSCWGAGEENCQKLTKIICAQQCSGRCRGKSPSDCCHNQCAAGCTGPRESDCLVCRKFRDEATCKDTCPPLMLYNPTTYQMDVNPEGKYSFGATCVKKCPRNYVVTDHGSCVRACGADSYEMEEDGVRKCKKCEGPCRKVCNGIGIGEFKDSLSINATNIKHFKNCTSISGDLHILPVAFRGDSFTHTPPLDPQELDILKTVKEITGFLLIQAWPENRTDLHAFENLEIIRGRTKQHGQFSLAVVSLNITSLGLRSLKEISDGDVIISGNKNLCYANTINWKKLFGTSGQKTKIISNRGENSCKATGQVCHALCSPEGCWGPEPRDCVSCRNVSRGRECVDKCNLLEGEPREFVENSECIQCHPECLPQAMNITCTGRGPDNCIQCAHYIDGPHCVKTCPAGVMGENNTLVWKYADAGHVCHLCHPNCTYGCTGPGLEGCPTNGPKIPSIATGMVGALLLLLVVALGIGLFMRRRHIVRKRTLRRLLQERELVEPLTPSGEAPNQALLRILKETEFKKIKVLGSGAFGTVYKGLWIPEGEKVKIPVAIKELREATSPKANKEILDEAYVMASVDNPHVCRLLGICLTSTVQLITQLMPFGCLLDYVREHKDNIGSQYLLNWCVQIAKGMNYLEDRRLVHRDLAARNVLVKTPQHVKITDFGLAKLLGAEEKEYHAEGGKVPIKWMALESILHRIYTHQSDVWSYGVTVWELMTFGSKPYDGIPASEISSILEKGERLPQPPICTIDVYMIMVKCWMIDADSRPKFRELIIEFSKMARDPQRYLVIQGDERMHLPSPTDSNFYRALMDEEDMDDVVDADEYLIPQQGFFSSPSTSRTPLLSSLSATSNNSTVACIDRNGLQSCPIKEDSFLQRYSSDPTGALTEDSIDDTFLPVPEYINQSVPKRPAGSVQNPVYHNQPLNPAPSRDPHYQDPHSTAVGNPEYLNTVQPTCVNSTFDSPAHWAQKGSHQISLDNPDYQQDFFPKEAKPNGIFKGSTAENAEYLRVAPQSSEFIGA
Experimental: as §1, §2, §3

[4] = molecular target: T4, protein kinases (Homo sapiens, UniProt P07949, V804M); settings: RET(V804M), read-out: Test compound/solvent control (%)
T4 construct: purchased Discovery X company (USA), KINOMEscan screening platform
T4 sequence (P07949 29-1114 V804M): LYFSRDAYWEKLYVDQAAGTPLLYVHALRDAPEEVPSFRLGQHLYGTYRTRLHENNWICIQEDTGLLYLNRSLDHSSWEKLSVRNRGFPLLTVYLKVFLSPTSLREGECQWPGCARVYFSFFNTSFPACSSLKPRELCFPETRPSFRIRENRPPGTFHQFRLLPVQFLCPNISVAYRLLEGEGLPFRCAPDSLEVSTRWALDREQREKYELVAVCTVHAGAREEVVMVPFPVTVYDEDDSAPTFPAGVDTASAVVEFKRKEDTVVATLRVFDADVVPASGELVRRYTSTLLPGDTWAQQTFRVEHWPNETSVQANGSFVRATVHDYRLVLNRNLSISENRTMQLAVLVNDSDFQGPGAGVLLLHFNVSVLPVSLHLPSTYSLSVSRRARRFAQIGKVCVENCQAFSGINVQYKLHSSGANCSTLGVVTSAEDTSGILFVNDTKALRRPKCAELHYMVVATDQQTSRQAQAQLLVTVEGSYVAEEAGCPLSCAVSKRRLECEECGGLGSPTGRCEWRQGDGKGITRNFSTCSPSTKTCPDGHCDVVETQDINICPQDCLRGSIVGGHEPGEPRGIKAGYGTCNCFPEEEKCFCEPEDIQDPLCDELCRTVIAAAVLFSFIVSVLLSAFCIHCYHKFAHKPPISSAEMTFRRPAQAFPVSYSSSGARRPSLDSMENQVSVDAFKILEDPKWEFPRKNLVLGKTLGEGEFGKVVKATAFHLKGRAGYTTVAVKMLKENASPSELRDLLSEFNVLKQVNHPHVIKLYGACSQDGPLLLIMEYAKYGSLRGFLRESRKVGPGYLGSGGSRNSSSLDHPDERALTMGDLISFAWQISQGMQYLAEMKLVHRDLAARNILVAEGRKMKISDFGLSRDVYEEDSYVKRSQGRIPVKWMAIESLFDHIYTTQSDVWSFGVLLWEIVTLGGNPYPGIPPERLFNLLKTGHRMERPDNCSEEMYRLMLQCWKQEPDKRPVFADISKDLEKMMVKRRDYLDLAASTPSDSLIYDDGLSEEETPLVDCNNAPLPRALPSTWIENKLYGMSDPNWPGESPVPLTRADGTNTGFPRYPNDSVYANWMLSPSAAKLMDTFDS
Experimental: as §1, §2, §3

[5] = molecular target: T5, protein kinases (Homo sapiens, UniProt P10721, A829P); settings: KIT(A829P), read-out: Test compound/solvent control (%)
T5 construct: purchased Discovery X company (USA), KINOMEscan screening platform
T5 sequence (P10721 26-976 A829P): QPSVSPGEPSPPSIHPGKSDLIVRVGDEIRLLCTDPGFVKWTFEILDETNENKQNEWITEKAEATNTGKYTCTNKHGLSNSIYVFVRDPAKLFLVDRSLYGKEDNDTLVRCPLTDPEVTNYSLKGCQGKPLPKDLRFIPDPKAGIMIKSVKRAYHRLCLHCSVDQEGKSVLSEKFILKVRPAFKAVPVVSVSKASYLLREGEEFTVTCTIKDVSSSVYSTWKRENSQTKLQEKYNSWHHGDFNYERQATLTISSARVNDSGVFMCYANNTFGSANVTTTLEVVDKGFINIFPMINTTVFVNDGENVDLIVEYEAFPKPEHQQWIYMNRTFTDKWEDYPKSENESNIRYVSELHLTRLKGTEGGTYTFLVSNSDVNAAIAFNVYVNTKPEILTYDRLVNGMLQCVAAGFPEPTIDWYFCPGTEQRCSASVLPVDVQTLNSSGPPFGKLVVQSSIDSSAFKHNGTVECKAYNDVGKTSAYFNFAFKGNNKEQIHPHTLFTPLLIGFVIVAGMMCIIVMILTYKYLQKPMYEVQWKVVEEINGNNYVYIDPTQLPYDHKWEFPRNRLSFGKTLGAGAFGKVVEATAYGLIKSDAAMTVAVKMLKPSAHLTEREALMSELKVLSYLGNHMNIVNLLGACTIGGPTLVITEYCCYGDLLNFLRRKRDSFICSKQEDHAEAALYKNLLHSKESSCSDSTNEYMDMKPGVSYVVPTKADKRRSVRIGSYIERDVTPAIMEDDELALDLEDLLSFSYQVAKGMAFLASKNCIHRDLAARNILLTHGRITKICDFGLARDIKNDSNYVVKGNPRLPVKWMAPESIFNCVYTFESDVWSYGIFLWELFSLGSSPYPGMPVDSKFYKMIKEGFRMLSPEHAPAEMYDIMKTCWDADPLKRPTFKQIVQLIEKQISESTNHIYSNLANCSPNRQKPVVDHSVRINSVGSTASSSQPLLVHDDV
Experimental: as §1, §2, §3

[6] = molecular target: T6, protein kinases (Homo sapiens, UniProt P10721, L576P); settings: KIT(L576P), read-out: Test compound/solvent control (%)
T6 construct: purchased Discovery X company (USA), KINOMEscan screening platform
T6 sequence (P10721 26-976 L576P): as the sequence (P10721 26-976 A829P) above, with L551P, P804A counted along it
Experimental: as §1, §2, §3

[7] = molecular target: T7, protein kinases (Homo sapiens, UniProt P12931); settings: SRC, read-out: Test compound/solvent control (%)
T7 construct: purchased Discovery X company (USA), KINOMEscan screening platform
Experimental: as §1, §2, §3

[8] = molecular target: T8, protein kinases (Homo sapiens, UniProt P22455); settings: FGFR4, read-out: Test compound/solvent control (%)
T8 construct: purchased Discovery X company (USA), KINOMEscan screening platform
T8 sequence (P22455 22-802): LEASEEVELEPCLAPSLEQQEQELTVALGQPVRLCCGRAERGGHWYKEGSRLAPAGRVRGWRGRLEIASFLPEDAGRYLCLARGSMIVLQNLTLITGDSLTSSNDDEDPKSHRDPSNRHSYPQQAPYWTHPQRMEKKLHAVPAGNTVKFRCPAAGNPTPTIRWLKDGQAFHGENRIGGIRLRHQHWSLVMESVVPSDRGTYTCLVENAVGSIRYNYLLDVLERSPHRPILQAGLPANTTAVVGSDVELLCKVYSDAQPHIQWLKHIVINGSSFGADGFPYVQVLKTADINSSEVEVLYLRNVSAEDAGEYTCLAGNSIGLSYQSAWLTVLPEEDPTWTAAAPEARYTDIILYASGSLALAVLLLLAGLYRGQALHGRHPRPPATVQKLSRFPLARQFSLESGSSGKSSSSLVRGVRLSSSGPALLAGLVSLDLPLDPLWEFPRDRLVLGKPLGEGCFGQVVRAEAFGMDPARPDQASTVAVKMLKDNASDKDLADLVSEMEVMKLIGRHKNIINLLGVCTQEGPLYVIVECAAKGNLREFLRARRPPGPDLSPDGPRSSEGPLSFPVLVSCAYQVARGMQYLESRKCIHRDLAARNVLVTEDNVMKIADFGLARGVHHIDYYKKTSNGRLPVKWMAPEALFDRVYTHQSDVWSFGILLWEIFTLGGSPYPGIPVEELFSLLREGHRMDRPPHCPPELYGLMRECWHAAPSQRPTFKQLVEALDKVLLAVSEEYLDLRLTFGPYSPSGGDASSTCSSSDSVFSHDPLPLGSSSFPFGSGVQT
Experimental: as §1, §2, §3

[9] = molecular target: T9, protein kinases (Homo sapiens, UniProt P36888, K663Q); settings: FLT3(K663Q), read-out: Test compound/solvent control (%)
T9 construct: purchased Discovery X company (USA), KINOMEscan screening platform
T9 sequence (P36888 27-993 K663Q): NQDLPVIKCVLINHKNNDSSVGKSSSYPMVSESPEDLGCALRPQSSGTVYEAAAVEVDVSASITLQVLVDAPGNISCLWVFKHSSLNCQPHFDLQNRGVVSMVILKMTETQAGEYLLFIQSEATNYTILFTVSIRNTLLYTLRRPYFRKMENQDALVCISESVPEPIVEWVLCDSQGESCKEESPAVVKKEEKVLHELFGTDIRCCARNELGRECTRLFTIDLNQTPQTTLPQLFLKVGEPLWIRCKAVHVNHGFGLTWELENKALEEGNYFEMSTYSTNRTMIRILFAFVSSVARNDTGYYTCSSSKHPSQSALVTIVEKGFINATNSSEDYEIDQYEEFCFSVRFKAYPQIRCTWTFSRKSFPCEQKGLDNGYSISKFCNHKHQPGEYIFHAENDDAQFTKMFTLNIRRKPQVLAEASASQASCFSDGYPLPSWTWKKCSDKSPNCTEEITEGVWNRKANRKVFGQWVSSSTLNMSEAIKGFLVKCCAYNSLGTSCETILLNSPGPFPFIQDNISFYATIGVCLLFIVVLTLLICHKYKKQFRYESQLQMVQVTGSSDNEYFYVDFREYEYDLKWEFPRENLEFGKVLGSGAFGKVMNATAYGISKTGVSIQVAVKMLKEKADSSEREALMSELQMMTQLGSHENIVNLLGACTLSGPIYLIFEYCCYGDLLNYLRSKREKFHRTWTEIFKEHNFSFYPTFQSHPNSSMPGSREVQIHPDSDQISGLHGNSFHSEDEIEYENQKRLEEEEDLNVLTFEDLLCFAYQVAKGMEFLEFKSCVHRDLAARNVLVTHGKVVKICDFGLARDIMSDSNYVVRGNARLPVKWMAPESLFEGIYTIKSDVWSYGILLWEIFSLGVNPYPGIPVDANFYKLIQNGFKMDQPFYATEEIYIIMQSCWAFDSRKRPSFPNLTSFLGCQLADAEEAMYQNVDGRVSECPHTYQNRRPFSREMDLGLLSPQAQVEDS
Experimental: as §1, §2, §3

[10] = molecular target: T10, protein kinases (Homo sapiens, UniProt Q16620); settings: TRKB (NTRK2), read-out: Test compound/solvent control (%)
T10 construct: purchased Discovery X company (USA), KINOMEscan screening platform
T10 sequence (Q16620 32-822): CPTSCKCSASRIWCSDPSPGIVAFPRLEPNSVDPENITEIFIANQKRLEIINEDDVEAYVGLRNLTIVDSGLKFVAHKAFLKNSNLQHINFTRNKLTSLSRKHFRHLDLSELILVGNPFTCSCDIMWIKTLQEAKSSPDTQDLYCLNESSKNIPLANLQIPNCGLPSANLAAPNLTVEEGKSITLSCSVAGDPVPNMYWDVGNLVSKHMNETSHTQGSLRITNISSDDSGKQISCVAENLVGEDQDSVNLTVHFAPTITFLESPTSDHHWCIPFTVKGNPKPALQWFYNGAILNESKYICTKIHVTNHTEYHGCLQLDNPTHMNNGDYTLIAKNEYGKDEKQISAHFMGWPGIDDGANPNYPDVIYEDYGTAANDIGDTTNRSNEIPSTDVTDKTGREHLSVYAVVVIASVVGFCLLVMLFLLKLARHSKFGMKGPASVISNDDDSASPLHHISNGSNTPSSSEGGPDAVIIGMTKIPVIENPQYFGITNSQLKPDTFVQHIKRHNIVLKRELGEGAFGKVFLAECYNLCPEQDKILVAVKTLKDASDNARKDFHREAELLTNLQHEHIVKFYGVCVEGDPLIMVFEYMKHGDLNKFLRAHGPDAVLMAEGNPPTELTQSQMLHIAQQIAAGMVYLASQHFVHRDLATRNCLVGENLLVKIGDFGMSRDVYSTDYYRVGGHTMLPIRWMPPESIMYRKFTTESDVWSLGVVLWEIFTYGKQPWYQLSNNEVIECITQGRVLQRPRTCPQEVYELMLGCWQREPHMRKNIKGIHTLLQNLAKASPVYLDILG
Experimental: as §1, §2, §3

remaining binding at 0.001 µM ([1]; 1 nM): 50% | remaining binding at 0.01 µM ([1]; 10 nM): 7.6% | remaining binding at 1 µM ([1]; 1000 nM): 0.1% | remaining binding at 0.001 µM ([2]; ABL1(Q252H)-phosphorylated): 71% | remaining binding at 0.01 µM ([2]; ABL1(Q252H)-phosphorylated): 12% | remaining binding at 1 µM ([2]; ABL1(Q252H)-phosphorylated): 0.15% | remaining binding at 0.001 µM ([2]; ABL1(Q252H)-unphosphorylated): 48% | remaining binding at 0.01 µM ([2]; ABL1(Q252H)-unphosphorylated): 7.8% | remaining binding at 1 µM ([2]; ABL1(Q252H)-unphosphorylated): 0% | Test compound/solvent control (%) ([3]; 1 nM): 100% | Test compound/solvent control (%) ([3]; 10 nM): 26% | Test compound/solvent control (%) ([3]; 1000 nM): 0% | remaining binding at 0.001 µM ([4]; 1 nM): 100% | remaining binding at 0.01 µM ([4]; 10 nM): 34% | remaining binding at 1 µM ([4]; 1000 nM): 0% | remaining binding at 0.001 µM ([5]; 1 nM): 84% | remaining binding at 0.01 µM ([5]; 10 nM): 22% | remaining binding at 1 µM ([5]; 1000 nM): 0% | remaining binding at 0.001 µM ([6]; 1 nM): 95% | remaining binding at 0.01 µM ([6]; 10 nM): 32% | remaining binding at 1 µM ([6]; 1000 nM): 0% | remaining binding at 0.001 µM ([7]; 1 nM): 36% | remaining binding at 0.01 µM ([7]; 10 nM): 1.4% | remaining binding at 1 µM ([7]; 1000 nM): 0.1% | remaining binding at 0.001 µM ([8]; 1 nM): 93% | remaining binding at 0.01 µM ([8]; 10 nM): 74% | remaining binding at 1 µM ([8]; 1000 nM): 0% | remaining binding at 0.001 µM ([9]; 1 nM): 89% | remaining binding at 0.01 µM ([9]; 10 nM): 22% | remaining binding at 1 µM ([9]; 1000 nM): 3.2% | remaining binding at 0.001 µM ([10]; 1 nM): 65% | remaining binding at 0.01 µM ([10]; 10 nM): 12% | remaining binding at 1 µM ([10]; 1000 nM): 0.35%
SMILES: COCCOc1cc2nccc(Oc3ccc(NC(=O)Nc4cc(C(C)(C)C)n[nH]4)c(Cl)c3)c2cc1NC(C)=O [Compound 66, N-[4-{4-[3-(5-tert-butyl-2H-pyrazol-3-yl)-ureido]-3-chloro-phenoxy}-7-(2-methoxy-ethoxy)-quinolin-6-yl]-acetamide]
